Source: US7030150B2, “Benzimidazole compounds and antiviral uses thereof” (Trimeris, Inc., priority 2001, dated 2006)

Tested on: uninfected Hep2 cells

| SMILES | CC50 [µM] |
| --- | --- |
| CN1CCC(N(C)Cc2nc3ccccc3n2Cc2nc3ccccc3[nH]2)CC1 [compound 80] | 58 |
| OCC1CCCCN1Cc1nc2ccccc2n1Cc1nc2ccccc2[nH]1 (centres unmarked) [compound 210] | 8 |
| Oc1ccc(N2CCN(Cc3nc4ccccc4n3Cc3nc4ccccc4[nH]3)CC2)cc1 [compound 220] | ≥ 100 |
| Fc1ccc(CNCc2nc3ccccc3n2Cc2nc3ccccc3[nH]2)cc1 [compound 126] | ≥ 100 |
| CCN(Cc1ccncc1)Cc1nc2ccccc2n1Cc1nc2ccccc2[nH]1 [compound 99] | ≥ 100 |
| CCOCCCNCc1nc2ccccc2n1Cc1nc2ccccc2[nH]1 [compound 159] | ≥ 100 |
| OCCOCCN1CCN(Cc2nc3ccccc3n2Cc2nc3ccccc3[nH]2)CC1 [compound 216] | 9 |
| c1coc(CNCc2nc3ccccc3n2Cc2nc3ccccc3[nH]2)c1 [compound 154] | ≥ 100 |
| CN1CCN(CCCNCc2nc3ccccc3n2Cc2nc3ccccc3[nH]2)CC1 [compound 112] | ≥ 100 |
| CC(C)N(Cc1nc2ccccc2n1Cc1nc2ccccc2[nH]1)CC(O)c1ccc(O)c(O)c1 (centres unmarked) [compound 107] | ≥ 100 |
| Clc1ccc(CCNCc2nc3ccccc3n2Cc2nc3ccccc3[nH]2)cc1 [compound 163] | 16 |
| c1ccc(CN2CCC(NCc3nc4ccccc4n3Cc3nc4ccccc4[nH]3)C2)cc1 (centres unmarked) [compound 149] | 39 |
| Clc1cccc(CNCc2nc3ccccc3n2Cc2nc3ccccc3[nH]2)c1 [compound 157] | ≥ 100 |
| c1ccc2[nH]c(Cn3c(CN4CCC(N5CCCC5)CC4)nc4ccccc43)nc2c1 [compound 228] | 60 |
| CC(C)N(Cc1nc2ccccc2n1Cc1cccc(Oc2ccccc2)c1)C1CCCCC1 [compound 12] | ≥ 100 |
| CC(C)N(C)Cc1nc2ccccc2n1Cc1nc2ccccc2[nH]1 [compound 82] | 25 |
| Cc1nc(Cn2c(CN3CCCCC3)nc3ccccc32)cs1 [compound 51] | 50 |
| O=C1CCCN1CCCNCc1nc2ccccc2n1Cc1nc2ccccc2[nH]1 [compound 158] | ≥ 100 |
| OCCNCc1nc2ccccc2n1Cc1nc2ccccc2[nH]1 [compound 117] | ≥ 100 |
| c1ccc2[nH]c(Cn3c(CNCCCn4ccnc4)nc4ccccc43)nc2c1 [compound 105] | 26 |
| CCCCN(CC)Cc1nc2ccccc2n1Cc1nc2ccccc2[nH]1 [compound 92] | 68 |
| O=c1[nH]ccn1CCNCc1nc2ccccc2n1Cc1nc2ccccc2[nH]1 [compound 166] | ≥ 100 |
| CCNCc1nc2ccccc2n1Cc1nc2ccccc2[nH]1 [compound 123] | ≥ 100 |

| SMILES | CC50 [µM] |
| --- | --- |
| FC(F)(F)c1ccccc1CNCc1nc2ccccc2n1Cc1nc2ccccc2[nH]1 [compound 139] | 18 |
| O=C1c2ccccc2C(=O)N1Cc1nc2ccccc2n1Cc1nc2ccccc2[nH]1 [compound 226] | 50 |
| CC1C=CC(C)N1Cc1nc2ccccc2n1Cc1nc2ccccc2[nH]1 (centres unmarked) [compound 207] | ≥ 100 |
| CNCc1nc2ccccc2n1Cc1nc2ccccc2[nH]1 [compound 164] | ≥ 100 |
| FC(F)(F)c1ccc(N2CCN(Cc3nc4ccccc4n3Cc3nc4ccccc4[nH]3)CC2)nc1 [compound 196] | 78 |
| c1ccc2[nH]c(Cn3c(CNC4CCCC4)nc4ccccc43)nc2c1 [compound 177] | ≥ 100 |
| Cc1ccc(N2CCN(Cc3nc4ccccc4n3Cc3nc4ccccc4[nH]3)CC2)c(C)c1 [compound 227] | ≥ 100 |
| FC(F)(F)Oc1cccc(CNCc2nc3ccccc3n2Cc2nc3ccccc3[nH]2)c1 [compound 127] | ≥ 100 |
| OCC1CCCN(Cc2nc3ccccc3n2Cc2nc3ccccc3[nH]2)C1 (centres unmarked) [compound 211] | 32 |
| Clc1ccc(CNCc2nc3ccccc3n2Cc2nc3ccccc3[nH]2)cc1Cl [compound 171] | 58 |
| N=C(N)NCc1nc2ccccc2n1Cc1nc2ccccc2[nH]1 [compound 104] | ≥ 100 |
| CCOC(=O)C1CCN(Cc2nc3ccccc3n2Cc2nc3ccccc3[nH]2)CC1 [compound 203] | ≥ 100 |
| O=C1C(=O)N(Cc2nc3ccccc3n2Cc2nc3ccccc3[nH]2)c2ccc([N+](=O)[O-])cc21 [compound 236] | ≥ 100 |
| CN(CCc1ccccn1)Cc1nc2ccccc2n1Cc1nc2ccccc2[nH]1 [compound 98] | ≥ 100 |
| c1ccc2[nH]c(Cn3c(CN4CCSC4)nc4ccccc43)nc2c1 [compound 222] | ≥ 100 |
| O=C(OCc1ccccc1)N1CCCCN(Cc2nc3ccccc3n2Cc2nc3ccccc3[nH]2)CC1 [compound 232] | ≥ 100 |
| COc1ccc(N2CCN(Cc3nc4ccccc4n3Cc3nc4ccccc4[nH]3)CC2)cc1 [compound 197] | ≥ 100 |
| CCN(CCO)Cc1nc2ccccc2n1Cc1nc2ccccc2[nH]1 [compound 96] | ≥ 100 |
| FC(F)(F)Oc1ccccc1Cn1c(CN2CCCCC2)nc2ccccc21 [compound 75] | 24 |
| CSc1ccc(Cn2c(CN3CCCCC3)nc3ccccc32)cc1 [compound 76] | 11 |
| CCN(Cc1nc2ccccc2n1Cc1nc2ccccc2[nH]1)C(C)C [compound 81] | 63 |
| Fc1cccc(F)c1CNCc1nc2ccccc2n1Cc1nc2ccccc2[nH]1 [compound 161] | ≥ 100 |
| c1ccc2[nH]c(Cn3c(CN4CCCCC4)nc4ccccc43)nc2c1 [compound 79] | ≥ 100 |

| SMILES | CC50 [µM] |
| --- | --- |
| CCN(CC)CCCC(C)NCc1nc2ccccc2n1Cc1nc2ccccc2[nH]1 (centres unmarked) [compound 148] | ≥ 100 |
| CC(C)NCc1nc2ccccc2n1Cc1nc2ccccc2[nH]1 [compound 152] | ≥ 100 |
| CC(C)N(Cc1nc2ccccc2n1Cc1ccc(S(C)(=O)=O)cc1)C1CCCCC1 [compound 13] | ≥ 100 |
| c1ccc2[nH]c(Cn3c(CNC4CCCCC4)nc4ccccc43)nc2c1 [compound 165] | ≥ 100 |
| OCCC1CCCCN1Cc1nc2ccccc2n1Cc1nc2ccccc2[nH]1 (centres unmarked) [compound 213] | ≥ 100 |
| COc1cc(Cn2c(CN(C(C)C)C3CCCCC3)nc3ccccc32)cc(OC)c1 [compound 3] | 50 |
| Cc1nc(Cn2c(CN(C(C)C)C3CCCCC3)nc3ccccc32)cs1 [compound 2] | 50 |
| Fc1cc(F)cc(CNCc2nc3ccccc3n2Cc2nc3ccccc3[nH]2)c1 [compound 173] | 6.4 |
| C1=CCN(Cc2nc3ccccc3n2Cc2nc3ccccc3[nH]2)CC1 [compound 202] | ≥ 100 |
| O=[N+]([O-])c1ccc(Cn2c(CN3CCCCC3)nc3ccccc32)o1 [compound 54] | 97 |
| Fc1cc2c(c(Cn3c(CN4CCCCC4)nc4ccccc43)c1)OCOC2 [compound 59] | ≥ 100 |
| CN(C)CCCNCc1nc2ccccc2n1Cc1nc2ccccc2[nH]1 [compound 174] | ≥ 100 |
| CCOCCCNCc1nc2ccccc2n1Cc1nc2ccccc2[nH]1 [compound 182] | ≥ 100 |
| COc1ccccc1CCNCc1nc2ccccc2n1Cc1nc2ccccc2[nH]1 [compound 175] | ≥ 100 |
| CCCNCc1nc2ccccc2n1Cc1nc2ccccc2[nH]1 [compound 128] | ≥ 100 |
| CCCCC(CO)NCc1nc2ccccc2n1Cc1nc2ccccc2[nH]1 (centres unmarked) [compound 176] | ≥ 100 |
| O=[N+]([O-])c1ccc(Cn2c(CN3CCCCC3)nc3ccccc32)o1 [compound 77] | ≥ 100 |
| CN(C)CCN(C)Cc1nc2ccccc2n1Cc1nc2ccccc2[nH]1 [compound 84] | ≥ 100 |
| CSc1ccc(Cn2c(CN(C(C)C)C3CCCCC3)nc3ccccc32)cc1 [compound 14] | 30 |
| CN(Cc1nc2ccccc2n1Cc1nc2ccccc2[nH]1)C(c1ccccc1)c1ccccc1 [compound 111] | ≥ 100 |
| OCC1CCCN1Cc1nc2ccccc2n1Cc1nc2ccccc2[nH]1 (centres unmarked) [compound 209] | ≥ 100 |
| FC(F)(F)c1cccc(N2CCN(Cc3nc4ccccc4n3Cc3nc4ccccc4[nH]3)CC2)c1 [compound 219] | ≥ 100 |
| CC(C)OCCCNCc1nc2ccccc2n1Cc1nc2ccccc2[nH]1 [compound 129] | ≥ 100 |

| SMILES | CC50 [µM] |
| --- | --- |
| ClCc1nc2ccccc2n1Cc1nc2ccccc2[nH]1 [compound 1] | 50 |
| CN1CCCC1CCNCc1nc2ccccc2n1Cc1nc2ccccc2[nH]1 (centres unmarked) [compound 172] | 95 |
| c1ccc(CC(NCc2nc3ccccc3n2Cc2nc3ccccc3[nH]2)c2ccccc2)cc1 (centres unmarked) [compound 168] | ≥ 100 |
| FC(F)(F)Oc1ccc(CNCc2nc3ccccc3n2Cc2nc3ccccc3[nH]2)cc1 [compound 115] | ≥ 100 |
| c1cncc(CNCc2nc3ccccc3n2Cc2nc3ccccc3[nH]2)c1 [compound 113] | ≥ 100 |
| c1ccc2[nH]c(Cn3c(CN4CCC4)nc4ccccc43)nc2c1 [compound 200] | 7.6 |
| COCCCNCc1nc2ccccc2n1Cc1nc2ccccc2[nH]1 [compound 116] | ≥ 100 |
| c1ccc2c(NCc3nc4ccccc4n3Cc3nc4ccccc4[nH]3)cccc2c1 [compound 180] | 14 |
| c1ccc2[nH]c(Cn3c(CNCCCn4ccnc4)nc4ccccc43)nc2c1 [compound 136] | ≥ 100 |
| CCCN(Cc1nc2ccccc2n1Cc1cccc(Oc2ccccc2)c1)CC1CC1 [compound 25] | ≥ 101 |
| CCCCN(CCCC)CCCNCc1nc2ccccc2n1Cc1nc2ccccc2[nH]1 [compound 100] | 9.3 |
| CCCN(Cc1nc2ccccc2n1Cc1ccc(S(C)(=O)=O)cc1)CC1CC1 [compound 26] | 97 |
| CN(Cc1nc2ccccc2n1Cc1nc2ccccc2[nH]1)CC(O)c1ccc(O)cc1 (centres unmarked) [compound 97] | 77 |
| CN(Cc1ccco1)Cc1nc2ccccc2n1Cc1nc2ccccc2[nH]1 [compound 85] | ≥ 100 |
| Cc1nc(Cn2c(CN(Cc3ccccc3)C(C)C)nc3ccccc32)cs1 [compound 40] | 50 |
| CCCCCN(C)Cc1nc2ccccc2n1Cc1nc2ccccc2[nH]1 [compound 91] | 80 |
| COc1cc2c(cc1OC)C(CC#N)N(Cc1nc3ccccc3n1Cc1nc3ccccc3[nH]1)CC2 (centres unmarked) [compound 223] | ≥ 100 |
| CN(C)CCCN(CCCN(C)C)Cc1nc2ccccc2n1Cc1nc2ccccc2[nH]1 [compound 101] | ≥ 100 |
| COc1cccc(CNCc2nc3ccccc3n2Cc2nc3ccccc3[nH]2)c1OC [compound 181] | ≥ 100 |
| Fc1ccc(F)c(CNCc2nc3ccccc3n2Cc2nc3ccccc3[nH]2)c1 [compound 114] | ≥ 100 |
